The values that follow come from patent US20170226518A1, “COMPOSITIONS AND METHODS FOR TREATING CANCER” (Autotelic LLC, priority 2016, published 2017).

Each structure is given as a SMILES string. Some results are limits rather than exact numbers.

In data set [1] the test system is HUP-T3 pancreatic cancer cells. Kind of data set: Cellular proliferation of HUP-T3 pancreatic cancer cells in vitro. Type of data set: cell-based. The note with it: treatment on day 1 for 5 h, measured after 7 days. How it is done:
(§1) The aim of the study was to determine the effect of AP12009 (trabedersen) treatment in combination with 5-Fluorouracil (5-FU) on TGFβ2 secretion and on cellular proliferation of HUP-T3 pancreatic cancer cells and WiDr colon cancer cells in vitro.
(§2) 10 μM of AP12009 as monotherapy decreased cell proliferation (53% proliferation of untreated control) and TGFβ2 expression (42% of untreated control) in HUP-T3 cells.

Data set [2] has as its system TGFβ2. Description: TGFβ2 secretion/expression in HUP-T3 pancreatic cancer cells. Type of data set: cell-based. As to conditions: ca. How it is done:
as §1, §2

The next data set relates to WiDr colon cancer cells. Description: Cellular proliferation of WiDr colon cancer cells in vitro. Type of data set: cell-based. As to conditions: treatment on day 1 for 5 h only, ca.
Excerpt: as §1

In data set [3] the test system is TGFβ2. Description: TGFβ2 secretion/expression in WiDr colon cancer cells. Type of data set: cell-based. As to conditions: ca.
Excerpt: as §1

The subject of data set [4] is C8161 human melanoma cells. Description: C8161 melanoma xenograft model: tumor growth and survival. As to conditions: for Tumor growth suppressed relative to control group 1: day 42.
Description: Sixty female athymic nude mice were intradermally inoculated with C8161 human melanoma cells and randomized into six groups of 10 mice. Three groups received monotherapy treatment with either OT-101 (trabedersen) (16 mg/kg) (Group 2) or Dacarbazine (DTIC; 1 or 10 mg/kg; Groups 3, 4). Two groups received combination therapy with OT-101/DTIC at 16/1 mg/kg or 16/10 mg/kg (Groups 5 and 6). Vehicle (0.9% saline, Groups 1, 3, and 4) and OT-101 were administered 3 times/week via subcutaneous injection. Vehicle (0.9% saline, Groups 1 and 2) and DTIC (1 or 10 mg/kg) were administered via intraperitoneal injection four times/week. All OT-101/Trabedersen treatments commenced at day 0 of the study and all DTIC treatments commenced on day 14. Mice were monitored for adverse effects, body weight and tumor size three times weekly. The tumor, lungs, liver and kidneys were excised from all mice at termination and weighed.

Consider `O=c1[nH]cc(F)c(=O)[nH]1` [5-FU, 5-Fluorouracil, reference compound], for which the “5-FU concentrations that dose-dependently reduced cell proliferation” value in data set [1] is over 10 µM. For the same compound, the “5-FU concentrations at which TGFβ2 was suppressed” value in the data set on TGFβ2 [2] and in the data set with TGFβ2 [3] was over 75 µM throughout. The “5-FU concentrations that concentration-dependently reduced cell proliferation” value in the data set with WiDr colon cancer cells is over 38 µM.

`CN(C)/N=N/c1[nH]cnc1C(N)=O` [DTIC, Dacarbazine]: the “Tumor growth suppressed relative to control group 1” value in data set [4] (group 3: DTIC 1 mg/kg i.p. four times/week from day 14) is recorded as −2%; in data set [4] (group 4: DTIC 10 mg/kg i.p. four times/week from day 14) it was 78%. In addition, the values for the median survival in data set [4] (group 3: DTIC 1 mg/kg) and in data set [4] (group 4: DTIC 10 mg/kg) were 47 days and 60 days, respectively.
